Like-named read-outs stand apart in the source and are kept apart here.

The values below come from patent EP4786466A1, “QUINAZOLINE DERIVATIVE, SALT THEREOF, AND PHARMACEUTICAL COMPOSITION COMPRISING SAME AS ACTIVE INGREDIENT” (Korea Research Institute of Chemical Technology, priority 2023, dated 2025).

One data set in a line: in vitro. The following applies: human.
The subject of data set [1] is MCF7 breast cancer cell lines. The data set can be described thus: Cell viability analysis, WST-8 assay, MCF7. The following applies: Homo sapiens, MCF7, 72 h; for viability at 1 µM: read-out: Cell viability (%) WST-8, MCF7 (1 µM), compound 1 µM, 72 hours; for viability at 10 µM: read-out: Cell viability (%) WST-8, MCF7, footnote b: concentration 10 µM, 72 hours; for IC50: read-out: IC50 Cell viability (MCF7). A general note: Tetrazolium assays rely on reduction of a dye to a coloured formazan, in cell work by metabolically active cells.
Description: MCF7 breast cancer cell lines and MCF10A normal breast cancer cell lines were treated with serial dilutions of the compounds of the present invention ranging from 1 µM to 15.63 nM for 72 hours. Cell viability was measured by the WST-8 assay (Cyto XTM cell viability assay kit; LPS solution, Daejeon, Korea) according to the manufacturer's instructions.

Data set [2] concerns the target T1, Recombinant GST-TAG-MASTL (Homo sapiens, UniProt Q96GX5).
T1 construct: GST; purchased Thermo Fisher Scientific
T1 sequence (Q96GX5 1-879): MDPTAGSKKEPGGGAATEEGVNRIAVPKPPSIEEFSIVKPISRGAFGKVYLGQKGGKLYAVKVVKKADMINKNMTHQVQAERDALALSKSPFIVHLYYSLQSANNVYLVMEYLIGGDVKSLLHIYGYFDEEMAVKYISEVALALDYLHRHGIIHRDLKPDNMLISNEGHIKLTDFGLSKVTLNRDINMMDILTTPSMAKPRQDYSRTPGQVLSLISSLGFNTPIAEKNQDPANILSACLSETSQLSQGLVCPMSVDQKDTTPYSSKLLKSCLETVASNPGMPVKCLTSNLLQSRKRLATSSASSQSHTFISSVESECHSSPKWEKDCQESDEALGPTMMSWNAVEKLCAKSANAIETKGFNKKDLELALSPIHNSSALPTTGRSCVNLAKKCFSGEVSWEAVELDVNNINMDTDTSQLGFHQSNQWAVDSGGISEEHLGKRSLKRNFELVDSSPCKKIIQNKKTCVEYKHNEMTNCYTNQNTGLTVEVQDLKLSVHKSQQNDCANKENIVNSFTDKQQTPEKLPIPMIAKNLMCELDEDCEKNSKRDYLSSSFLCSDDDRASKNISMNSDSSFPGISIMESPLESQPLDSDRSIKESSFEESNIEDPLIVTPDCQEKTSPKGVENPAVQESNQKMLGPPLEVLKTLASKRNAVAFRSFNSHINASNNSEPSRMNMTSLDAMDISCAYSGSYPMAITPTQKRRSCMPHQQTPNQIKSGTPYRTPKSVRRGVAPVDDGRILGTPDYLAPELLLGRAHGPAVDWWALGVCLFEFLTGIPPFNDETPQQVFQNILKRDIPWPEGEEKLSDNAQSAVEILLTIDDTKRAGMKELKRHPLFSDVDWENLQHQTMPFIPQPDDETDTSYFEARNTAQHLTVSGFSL
The data set can be described thus: HTRF-based kinase assay (HTRF KinEASE assay kit). It is filed as biochemical. As to conditions: for activity at 1 µM: read-out: MASTL activity (%) HTRF (1 µM); for activity at 10 µM: read-out: MASTL activity (%) HTRF. From the text: Recombinant GST-TAG-MASTL (Thermo Fisher Scientific, MA, USA) was used for HTRF-based kinase assays. The HTRF KinEASE assay kit (CisBio, MA, USA) was used according to the manufacturer's instructions.
In general terms: Time-resolved FRET reads energy transfer from a long-lived donor to a nearby acceptor.

Another data set deals with pENSA. Briefly: pENSA level by immunofluorescence (described method: in vitro kinase analysis with GST-tag-MASTL and His-tag-ENSA). It is filed as cell-based. As to conditions: for pENSA (%) Immunofluor ecense: footnote b: concentration 10 µM; for IC50: unit µM, read-out: IC50 pENSA. The method, then: Two recombinant GST-tag-MASTL (Thermo Fisher Scientific) and His-tag-ENSA (Sino Biological Inc., Beijing, China) were used for in vitro kinase analysis. In vitro kinase analysis was performed as described in the literature [Front Oncol 2020, 10, 571601, 39-202021-10-20doi:10.3389/fonc.2020.571601.].
Phosphorylated ENSA (pENSA), which is activated by phosphorylation by MASTL, can be utilized as a biomarker as it is expected that its activity will be inhibited along with the inhibition of MASTL. In the cell viability assay, MCF7 refers to a breast cancer cell line, and MCF10A refers to a normal breast […] cell line.

Setting [3] is: footnote b: concentration 10 µM.
Setting [4] is: HTRF, read-out: IC50(nM) MASTL activity.

In the case of `CC(C)NC(=O)N1CC2CC1CN2c1nc(Nc2cc(C3CC3)[nH]n2)c2ccccc2n1` (stereo not drawn) [compound 15b, 5-(4-((5-cyclopropyl-1G-pyrazol-3-yl)amino)quinazolin-2-yl)-M-isopropyl-2,5-diazabicyclo[2.2.1]heptane-2-carboxamide], the viability at 1 µM in “in vitro” (mcf10a cells) amounted to 77.2%; in data set [1], 75.3%.

On to `N#CCc1ccc(Nc2nc(Nc3ccc(Cl)nn3)c3ccccc3n2)cc1` [compound 3i, 2-(4-((4-((6-chloropyridazin-3-yl)amino)quinazolin-2-yl)amino)phenyl)acetonitrile], for which, in data set [2] (compound 1 µM), the activity at 1 µM came to 126%. The results for the viability at 1 µM (in “in vitro”; in data set [1]) were 51.8% and 95.6%, respectively.

As for `N#Cc1cc(Cl)ccc1C1=CCN(c2nc(Nc3cc(C4CC4)[nH]n3)c3ccccc3n2)CC1` [compound 6o, 5-chloro-2-(1-(4-((5-cyclopropyl-1G-pyrazol-3-yl)amino)quinazolin-2-yl)-1,2,3,6-tetrahydropyridin-4-yl)benzonitrile], in data set [2], the activity at 1 µM turned out to be 61.2%. For the same compound, the viability at 1 µM in the data set “in vitro” (mcf10a cells) was 24.9%; in data set [1], 48.4%.

For the compound `CNc1nc(Nc2cc(C3CC3)[nH]n2)c2ccccc2n1` [compound 4cb, N^4-(5-cyclopropyl-1H-pyrazol-3-yl)-N^2-methylquinazoline-2,4-diamine], the activity at 10 µM in data set [2] (setting [3]) worked out at 53.1%. Besides, the viability at 1.25 µM in the data set “in vitro” is 102%; in data set [1] (read-out: Cell viability (%) WST-8, MCF7, footnote a: concentration 1.25 µM, 72 hours) it was 87.5%.

Regarding `N#CCc1ccc(Nc2nc(Nc3cccc(N)c3)c3ccccc3n2)cc1` [compound 3n, 2-(4-((4-((3-aminophenyl)amino)quinazolin-2-yl)amino)phenyl)acetonitrile], the activity at 1 µM in data set [2] (compound 1 µM) was determined as 125%. The viability at 1 µM in the data set “in vitro” was determined as 95.2%; in data set [1] it was 117%.

The IC50 is the concentration needed to halve the response being measured. On to `N#CCc1ccc(C2=CCN(c3nc(Nc4cc(C5CC5)[nH]n4)c4ccccc4n3)CC2)cc1F` [compound 6n, 2-(4-(1-(4-((5-cyclopropyl-1G-pyrazol-3-yl)amino)quinazolin-2-yl)-1,2,3,6-tetrahydropyridin-4-yl)-2-fluorophenyl)acetonitrile], for which the IC50 in data set [2] came out at 121 nM. Besides, the activity at 1 µM in data set [2] stood at 30.8%. Besides, the viability at 1 µM in “in vitro” (mcf10a cells) came to 116%; in data set [1] it was 110%.

Take `c1ccc2c(Nc3cc(C4CC4)n[nH]3)nc(Nc3ccc4nc[nH]c4c3)nc2c1` [compound 4df, N^2-(1H-benzo[d]imidazol-5-yl)-N^4-(5-cyclopropyl-1H-pyrazol-3-yl)quinazoline-2,4-diamine]: in data set [2] (compound 1 µM), the activity at 1 µM was 31.8%. Moreover, the viability at 1 µM was 4.8% in “in vitro” and 78.4% in data set [1].

As for `N#Cc1ccccc1S(=O)(=O)N1CC2CC1CN2c1nc(Nc2cc(C3CC3)[nH]n2)c2ccccc2n1` (stereo not drawn) [compound 15v, 2-((5-(4-((5-cyclopropyl-1G-pyrazol-3-yl)amino)quinazolin-2-yl)-2,5-diazabicyclo[2.2.1]heptan-2-yl)sulfonyl)benzonitrile], in data set [2], the IC50 turned out to be 52.7 nM and the activity at 1 µM is 29.5%. The viability at 1 µM in the data set “in vitro” (mcf10a cells) was 81.8%. Besides, the viability at 1 µM in data set [1] worked out at 80.5%.

`Cc1cc(Nc2nc(N3CC4CC3CN4C(=O)Nc3ccccc3)nc3ccccc23)n[nH]1` (stereo not drawn) [compound 27b, 5-(4-((5-methyl-1G-pyrazol-3-yl)amino)quinazolin-2-yl)-M-phenyl-2,5-diazabicyclo[2.2.1]heptane-2-carboxamide]: the viability at 1 µM came out at 36.1% in “in vitro” (mcf10a cells) and 83.2% in data set [1].

With `CC(C)(C)OC(=O)N1CC2C(C1)C2Nc1nc(Nc2cc(C3CC3)[nH]n2)c2ccccc2n1` (stereo not drawn) [4ag, sdqs-butyl 6-((4-((5-cyclopropyl-1G-pyrazol-3-yl)amino)quinazolin-2-yl)amino)-3-azabicyclo[3.1.0]hexane-3-carboxylate], the activity at 1 µM in data set [2] (compound 1 µM) stood at 67.1%. Further, the viability at 1 µM in “in vitro” (mcf10a cells) turned out to be 74.5%; in data set [1], 56.4%.

Regarding `N#Cc1ccc(CNc2nc(Nc3cc(C4CC4)[nH]n3)c3ccccc3n2)cc1` [compound 4ch, 4-(((4-((5-cyclopropyl-1G-pyrazol-3-yl)amino)quinazolin-2-yl)amino)methyl)benzonitrile], in data set [2], the activity at 1 µM stood at 43%. Besides, the viability at 1 µM in “in vitro” (mcf10a cells) is 32%; in data set [1] it was 73.6%.

For the compound `O=C1CSC(Nc2nc(Nc3ccccc3)nc3ccccc23)=N1` [compound 26b, 2-((2-(phenylamino)quinazolin-4-yl)amino)thiazol-4(5H)-one], the activity at 1 µM in data set [2] (compound 1 µM) is 112%. Besides, the values for the viability at 1 µM (in “in vitro”; in data set [1]) were 98.8% and 95.8%, respectively.

Regarding `CCNC(=O)c1ccc(Nc2nc(Nc3cc(C4CC4)[nH]n3)c3ccccc3n2)cc1` [4af, 4-((4-((5-cyclopropyl-1G-pyrazol-3-yl)amino)quinazolin-2-yl)amino)-M-ethylbenzamide], in data set [2] (compound 1 µM), the activity at 1 µM was 49.6%. Besides, the viability at 1 µM in the data set “in vitro” (mcf10a cells) was determined as 66.5%; in data set [1] it was 66.6%.

For `O=C(Nc1ccccc1)N1CC2CC1CN2c1nc(Nc2cn[nH]c2)c2ccccc2n1` (stereo not drawn) [compound 28b, 5-(4-((1G-pyrazol-4-yl)amino)quinazolin-2-yl)-M-phenyl-2,5-diazabicyclo[2.2.1]heptane-2-carboxamide], the viability at 1 µM in the data set “in vitro” (mcf10a cells) was 37%; in data set [1], 91.2%.

On to `Cc1cc(Nc2nc(N3CC4CC3CN4C(=O)NC(C)C)nc3ccccc23)n[nH]1` (stereo not drawn) [compound 27a, M-isopropyl-5-(4-((5-methyl-1G-pyrazol-3-yl)amino)quinazolin-2-yl)-2,5-diazabicyclo[2.2.1]heptane-2-carboxamide], for which the figures for the viability at 1 µM (in “in vitro” (mcf10a cells); in data set [1]) were 90.7% and 95.6%, respectively.

In the case of `CC(C)NC(=O)N1CC2CC1CN2c1nc(Nc2cn[nH]c2)c2ccccc2n1` (stereo not drawn) [compound 28a, 5-(4-((1G-pyrazol-4-yl)amino)quinazolin-2-yl)-M-isopropyl-2,5-diazabicyclo[2.2.1]heptane-2-carboxamide], the viability at 1.25 µM in the data set “in vitro” (mcf10a cells) was 93.9%. Moreover, the viability at 1 µM in data set [1] stood at 99%.

Take `O=S(=O)(C1CCCCC1)N1CC2CC1CN2c1nc(Nc2cc(C3CC3)[nH]n2)c2ccccc2n1` (stereo not drawn) [compound 15k, 2-(5-(cyclohexylsulfonyl)-2,5-diazabicyclo[2.2.1]heptan-2-yl)-M-(5-cyclopropyl-1G-pyrazol-3-yl)quinazolin-4-amine]: the IC50 in data set [2] (setting [4]) worked out at 152 nM; in the data set with pENSA it was 3.5 µM; in data set [1] it was 4.1 µM. Besides, in data set [2] (setting [3]), the activity at 10 µM is 11.3%. In addition, the “pENSA (%) Immunofluor ecense” value in the data set on pENSA is 0.5^b %. The viability at 10 µM in data set [1] came to 12.7%.

As to `Cc1n[nH]cc1Nc1nc(Nc2ccc(CC#N)cc2)nc2ccccc12` [compound 3e, 2-(4-((4-((3-methyl-1G-pyrazol-4-yl)amino)quinazolin-2-yl)amino)phenyl)acetonitrile], in data set [2], the activity at 10 µM amounted to 100%. Besides, the “pENSA (%) Immunofluor ecense” value with pENSA was 102^b %. Further, the viability at 10 µM in data set [1] was 108%.

Take `O=S(=O)(c1ccc2ccccc2c1)N1CC2CC1CN2c1nc(Nc2cc(C3CC3)[nH]n2)c2ccccc2n1` (stereo not drawn) [compound 15y, M-(5-cyclopropyl-1G-pyrazol-3-yl)-2-(5-(naphthalen-2-ylsulfonyl)-2,5-diazabicyclo[2.2.1]heptan-2-yl)quinazolin-4-amine]: the half-inhibitory concentration (IC50) in data set [2] (setting [4]) worked out at 928 nM; in the data set on pENSA, 6.9 µM; in data set [1], 8.2 µM. In addition, the activity at 10 µM in data set [2] (setting [3]) was found to be 18.5%. Also, the “pENSA (%) Immunofluor ecense” value with pENSA is reported as 35.5^b %. Further, the viability at 10 µM in data set [1] came to 64.1%.
